Experimental data from publication PMC10046961, “High-Throughput Screening Assay for Detecting Drug-Induced Changes in Synchronized Neuronal Oscillations and Potential Seizure Risk Based on Ca^2+ Fluorescence Measurements in Human Induced Pluripotent Stem Cell (hiPSC)-Derived Neuronal 2D and 3D Cultures” (Cells, 2023).
Like-named read-outs stand apart in the source and are kept apart here.

How the values were obtained:
[1] = test system: hiPSC-derived neurons co-cultured with human primary astrocytes in 3D; assay: Ca2+ transient oscillation assay (FDSS), 3D spheroids; assay type: cell-based; details: 60 min
Outline: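 Fura-2 fluorescence was read twice for 20 min each: a baseline 10 min after 0.04% DMSO, and again 60 min after compound addition at nominal final concentration. The 3D co-cultures (1:1 hiPSC neurons from a donor and human astrocytes, 8000 each) matured 5 weeks in BrainPhys medium after a 1-week differentiation.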

[2] = test system: hiPSC-derived neurons co-cultured with human primary astrocytes in 2D; assay: Ca2+ transient oscillation assay (FDSS), 2D co-culture; assay type: cell-based; details: for activation at 0.37 µM / activation at 1.11 µM / activation at 3.33 µM / activation at 10 µM: Homo sapiens, 1 h, 60 min
Outline: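 hiPSC-derived excitatory neurons (CW50065, Quick-Neuron EX-SeV) co-cultured with human primary astrocytes at 4:1 (10,000:2500 cells per well). Cal-520-loaded cells in HBSS with 2 mM CaCl2 and 10 mM HEPES were pretreated with 0.04% DMSO.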

[3] = test system: kainic-acid-induced seizures; details: cited from earlier work
[4] = ref PharmaPendium, cited from earlier work
[5] = cited from earlier work
[6] = humans; cited from earlier work
[7] = read-out: Area under the curve - 2D Mean
[8] = read-out: Peak amplitude - 2D Mean
[9] = read-out: Peak-to-peak interval - 2D Mean

Which “Area under the curve - 3D Mean” value ([1]; 0.37 µM) does the source give for `CC(NC(C)(C)C)C(=O)c1cccc(Cl)c1` (centres unmarked) [Bupropion] here?
Its value is 137.5 % change from baseline.

What about the “Peak Number—3D Mean” value ([1]; 0.37 µM) of the same compound?
Its value is 1.3 % change from baseline.

What about the “Peak amplitude - 3D Mean” value ([1]; 0.37 µM) of the same compound?
Its value is 126.7 % change from baseline.

And the “Peak width - 3D Mean” value ([1]; 0.37 µM)?
The value was 0.0 % change from baseline.

What about the “Peak-to-peak interval - 3D Mean” value ([1]; 0.37 µM) of the same compound?
The value was 4.1 % change from baseline.

What about the “Area under the curve - 3D Mean” value ([1]; 1.11 µM) of the same compound?
Its value is 159.9 % change from baseline.

And the “Peak Number—3D Mean” value ([1]; 1.11 µM)?
Its value is −8.4 % change from baseline.

And the “Peak amplitude - 3D Mean” value ([1]; 1.11 µM)?
Its value is 134.2 % change from baseline.

What about the “Peak width - 3D Mean” value ([1]; 1.11 µM) of the same compound?
Its value is 9.4 % change from baseline.

What about the “Peak-to-peak interval - 3D Mean” value ([1]; 1.11 µM) of the same compound?
The value was 15.3 % change from baseline.

What about the “Area under the curve - 3D Mean” value ([1]; 3.33 µM) of the same compound?
Its value is 154.1 % change from baseline.

And the “Peak Number—3D Mean” value ([1]; 3.33 µM)?
Its value is −2.2 % change from baseline.

And the “Peak amplitude - 3D Mean” value ([1]; 3.33 µM)?
Its value is 128.1 % change from baseline.

What about the “Peak width - 3D Mean” value ([1]; 3.33 µM) of the same compound?
The value was 9.0 % change from baseline.

What about the “Peak-to-peak interval - 3D Mean” value ([1]; 3.33 µM) of the same compound?
Its value is 7.8 % change from baseline.

What about the “Area under the curve - 3D Mean” value ([1]; 10 µM) of the same compound?
The value was 119.7 % change from baseline.

And the “Peak Number—3D Mean” value ([1]; 10 µM)?
The value was 12.5 % change from baseline.

What about the “Peak amplitude - 3D Mean” value ([1]; 10 µM) of the same compound?
Its value is 118.0 % change from baseline.

What about the “Peak width - 3D Mean” value ([1]; 10 µM) of the same compound?
Its value is −1.4 % change from baseline.

And the “Peak-to-peak interval - 3D Mean” value ([1]; 10 µM)?
The value was −3.5 % change from baseline.

And the activation at 0.37 µM [2, 7]?
Its activation at 0.37 µM is 14.5%.

What about the activation at 0.37 µM ([2]; read-out: Peak Number—2D Mean) of the same compound?
Its activation at 0.37 µM is 12.7%.

And the activation at 0.37 µM [2, 8]?
Its activation at 0.37 µM is 2.7%.

And the activation at 0.37 µM ([2]; read-out: Peak width - 2D Mean)?
Its activation at 0.37 µM is 12.8%.

What about the activation at 0.37 µM [2, 9] of the same compound?
The activation at 0.37 µM was -5.5%.

And the activation at 1.11 µM [2, 7]?
Its activation at 1.11 µM is 26.6%.

What about the activation at 1.11 µM ([2]; read-out: Peak Number—2D Mean) of the same compound?
The activation at 1.11 µM was 6.6%.

What about the activation at 1.11 µM [2, 8] of the same compound?
Its activation at 1.11 µM is 5.4%.

What about the activation at 1.11 µM ([2]; read-out: Peak width - 2D Mean) of the same compound?
The activation at 1.11 µM was 26.6%.

And the activation at 1.11 µM [2, 9]?
The activation at 1.11 µM was 3.4%.

And the activation at 3.33 µM [2, 7]?
The activation at 3.33 µM was 25.5%.

What about the activation at 3.33 µM ([2]; read-out: Peak Number—2D Mean) of the same compound?
Its activation at 3.33 µM is -12%.

What about the activation at 3.33 µM [2, 8] of the same compound?
The activation at 3.33 µM was 3.7%.

What about the activation at 3.33 µM ([2]; read-out: Peak width - 2D Mean) of the same compound?
The activation at 3.33 µM was 29.2%.

What about the activation at 3.33 µM [2, 9] of the same compound?
The activation at 3.33 µM was 19.7%.

What about the activation at 10 µM [2, 7] of the same compound?
The activation at 10 µM was 39.3%.

What about the activation at 10 µM ([2]; read-out: Peak Number—2D Mean) of the same compound?
Its activation at 10 µM is 6%.

What about the activation at 10 µM [2, 8] of the same compound?
The activation at 10 µM was 4.7%.

And the activation at 10 µM ([2]; read-out: Peak width - 2D Mean)?
The activation at 10 µM was 46.5%.

And the activation at 10 µM [2, 9]?
Its activation at 10 µM is 41.8%.

And the “effect on kainic-acid-induced seizures in vitro” value [3]?
Its value is “attenuate”.

Which “Free Cmax” value ([4]; Table 1, peak plasma concentration in men, free therapeutic Cmax) does the source give for `Cc1ccc(Nc2nccc(N(C)c3ccc4c(C)n(C)nc4c3)n2)cc1S(N)(=O)=O` [Pazopanib] here?
The value was 600 to 1200 nM.

What about the “Free Cmax” value ([4]; Table 2, highest plasma concentration in humans after the therapeutic dose) of the same compound?
The value was 600 to 1200 nM.

What about the “seizure risk in humans” value [5] of the same compound?
Its value is “does not have a seizure risk”.

What about the “Area under the curve - 3D Mean” value ([1]; 0.37 µM) of the same compound?
The value was 125.7 % change from baseline.

What about the “Peak Number—3D Mean” value ([1]; 0.37 µM) of the same compound?
The value was 6.4 % change from baseline.

What about the “Peak amplitude - 3D Mean” value ([1]; 0.37 µM) of the same compound?
Its value is 101.6 % change from baseline.

What about the “Peak width - 3D Mean” value ([1]; 0.37 µM) of the same compound?
Its value is 9.7 % change from baseline.

What about the “Peak-to-peak interval - 3D Mean” value ([1]; 0.37 µM) of the same compound?
The value was −2.0 % change from baseline.

And the “Area under the curve - 3D Mean” value ([1]; 1.11 µM)?
Its value is 127.9 % change from baseline.

What about the “Peak Number—3D Mean” value ([1]; 1.11 µM) of the same compound?
The value was −4.2 % change from baseline.

And the “Peak amplitude - 3D Mean” value ([1]; 1.11 µM)?
Its value is 110.2 % change from baseline.

And the “Peak width - 3D Mean” value ([1]; 1.11 µM)?
The value was 7.7 % change from baseline.

And the “Peak-to-peak interval - 3D Mean” value ([1]; 1.11 µM)?
Its value is 4.1 % change from baseline.

What about the “Area under the curve - 3D Mean” value ([1]; 3.33 µM) of the same compound?
Its value is 116.3 % change from baseline.

And the “Peak Number—3D Mean” value ([1]; 3.33 µM)?
The value was 0.8 % change from baseline.

And the “Peak amplitude - 3D Mean” value ([1]; 3.33 µM)?
Its value is 107.5 % change from baseline.

And the “Peak width - 3D Mean” value ([1]; 3.33 µM)?
The value was 4.1 % change from baseline.

What about the “Peak-to-peak interval - 3D Mean” value ([1]; 3.33 µM) of the same compound?
The value was −3.0 % change from baseline.

And the “Area under the curve - 3D Mean” value ([1]; 10 µM)?
The value was 117.4 % change from baseline.

And the “Peak Number—3D Mean” value ([1]; 10 µM)?
Its value is −2.0 % change from baseline.

And the “Peak amplitude - 3D Mean” value ([1]; 10 µM)?
Its value is 101.7 % change from baseline.

What about the “Peak width - 3D Mean” value ([1]; 10 µM) of the same compound?
Its value is 8.7 % change from baseline.

And the “Peak-to-peak interval - 3D Mean” value ([1]; 10 µM)?
Its value is 7.5 % change from baseline.

And the “crossing of the blood–brain barrier” value [6]?
Its value is “does not cross the blood–brain barrier”.

What about the “effect on peak number / Ca2+ neuronal oscillations, in words” value ([2]; 2D format) of the same compound?
Its value is “significantly reduced peak number”.

What about the activation at 0.37 µM [2, 7] of the same compound?
Its activation at 0.37 µM is -1.8%.

And the activation at 0.37 µM ([2]; read-out: Peak Number—2D Mean)?
The activation at 0.37 µM was -49%.

And the activation at 0.37 µM [2, 8]?
Its activation at 0.37 µM is -15.8%.

And the activation at 0.37 µM ([2]; read-out: Peak width - 2D Mean)?
Its activation at 0.37 µM is -4.8%.

What about the activation at 0.37 µM [2, 9] of the same compound?
Its activation at 0.37 µM is 14.6%.

What about the activation at 1.11 µM [2, 7] of the same compound?
The activation at 1.11 µM was 7.8%.

What about the activation at 1.11 µM ([2]; read-out: Peak Number—2D Mean) of the same compound?
The activation at 1.11 µM was 4.4%.

And the activation at 1.11 µM [2, 8]?
The activation at 1.11 µM was -3.8%.

What about the activation at 1.11 µM ([2]; read-out: Peak width - 2D Mean) of the same compound?
Its activation at 1.11 µM is 12.6%.

And the activation at 1.11 µM [2, 9]?
The activation at 1.11 µM was -2.6%.

And the activation at 3.33 µM [2, 7]?
Its activation at 3.33 µM is 38.8%.

What about the activation at 3.33 µM ([2]; read-out: Peak Number—2D Mean) of the same compound?
The activation at 3.33 µM was 11.3%.

And the activation at 3.33 µM [2, 8]?
Its activation at 3.33 µM is 11.2%.

And the activation at 3.33 µM ([2]; read-out: Peak width - 2D Mean)?
The activation at 3.33 µM was 27.8%.

And the activation at 3.33 µM [2, 9]?
Its activation at 3.33 µM is 0.5%.

What about the activation at 10 µM [2, 7] of the same compound?
The activation at 10 µM was 16.3%.

And the activation at 10 µM ([2]; read-out: Peak Number—2D Mean)?
The activation at 10 µM was 10%.

What about the activation at 10 µM [2, 8] of the same compound?
Its activation at 10 µM is 9.5%.

And the activation at 10 µM ([2]; read-out: Peak width - 2D Mean)?
The activation at 10 µM was 3.7%.

What about the activation at 10 µM [2, 9] of the same compound?
The activation at 10 µM was 14.2%.
